According to patent US7267964B2, “DNA molecules encoding ligand gated ion channels from Dermacentor variabilis” (priority 2000, dated 2007):

Tests used:
Type in all cases: cell-based, Dermacentor variabilis
DvLGIC/GluCl 1 = assay: Two-microelectrode voltage clamp of Xenopus oocytes injected with DvLGIC/GluCl 1 RNA
Description: (§1) Synthesis of in vitro transcribed capped RNA—A PCR strategy was used to add the T7 promoter upstream of the initiating methionine (ATG) and a polyA^+ tail following the stop codon (TAG) of the open reading frame (ORF) of clones DvLGIC/GluCl1, DvLGIC/GluCl 11, DvLGIC/GluCl 7-1 and DvLGIC/GluCl 10-2. Amplified ORFs which contained the flanking T7 promoter and polyA^+ tail were used directly as templates in the in vitro transcription reaction (mMessage mMachine™, Ambion, Austin, Tex.). After removal of DNA template, the volume was adjusted to 100 μl with nuclease free water, and RNA purified using a G-50 Sephadex Column (Boehringer Mannheim, Indianapolis, Ind.). The elutate was extracted with an equal volume of phenol/chloroform, followed with a second chloroform extraction, precipitated with isopropyl alcohol, and resuspended in nuclease-free water to a storage concentration of 1 μg/μl.
(§2) Xenopus laevis oocytes were prepared and injected using standard methods previously described [Arena, J. P., Liu, K. K., Paress, P. S. & Cully, D. F. Mol. Pharmacol. 40, 368-374 (1991); Arena, J. P., Liu, K. K., Paress, P. S., Schaeffer, J. M. & Cully, D. F., Mol. Brain Res. 15, 339-348 (1992)]. Adult female Xenopus laevis were anesthetized with 0.17% tricaine methanesulfonate and the ovaries were surgically removed and placed in a solution consisting of (mM): NaCl 82.5, KCl 2, MgCl2 1, HEPES 5, NaPyruvate 2.5, Penicillin G. 100,000 units/L, Streptomycin Sulfate 1000 mg/L, pH 7.5 (Mod. OR-2). Ovarian lobes were broken open, rinsed several times in Mod. OR-2, and incubated in 0.2% collagenase (Sigma, Type1) in Mod. OR-2 at room temperature with gentle shaking. After 1 hour the collagenase solution was renewed and the oocytes were incubated for an additional 30-90 min until approximately 50% of the oocytes were released from the ovaries. Stage V and VI oocytes were selected and placed in media containing (mM): NaCl 96, KCl 2, MgCl2 1, CaCl2 1.8, HEPES 5, NaPyruvate 2.5, theophylline 0.5, gentamicin […], pH 7.5 (ND-96) for 16-24 hours before injection. Oocytes were injected with 50 nl of DvLGIC/GluCl1 or DvLGIC/GluCl 7-1 RNA at a concentration of 0.2 mg/ml. Oocytes were incubated at 18° C. for 1-6 days in ND-96 before recording.
(§3) Recordings were made at room temperature in modified ND-96 consisting of (mM): NaCl 96, MgCl2 1, CaCl2 0.1, BaCl2 3.5, HEPES 5, pH 7.5. Oocytes were voltage clamped using a Dagan CA1 two microelectrode amplifier (Dagan Corporation, Minneapolis, Minn.) interfaced to a Macintosh 7100/80 computer. The current passing electrode was filled with 0.7 M KCl, 1.7 M KCitrate, and the voltage recording electrode was filled with 1 M KCl. Throughout the experiment oocytes were superfused with modified ND-96 (control solution) or with ND-96 containing potential channel activators and blockers at a rate of approximately 3 ml/min. Data were acquired at 100 Hz and filtered at 33.3 Hz using Pulse software from HEKA Elektronik (Lambrecht, Germany). All recordings were performed from a holding potential of either 0 or −30 mV.

DvLGIC/GluCl 7-1 = assay: Two-microelectrode voltage clamp of Xenopus oocytes injected with DvLGIC/GluCl 7-1 RNA
Description: as §1, §2, §3

DvLGIC/GluCl 10-2 = DvLGIC/GluCl 10-2 expressed in Xenopus oocytes, current response; conditions: concentration not given
Description: as §1
(§4) Xenopus laevis oocytes were prepared and injected using standard methods previously described [Arena, J. P., Liu, K. K., Paress, P. S. & Cully, D. F. Mol. Pharmacol. 40, 368-374 (1991); Arena, J. P., Liu, K. K., Paress, P. S., Schaeffer, J. M. & Cully, D. F., Mol. Brain Res. 15, 339-348 (1992)]. […]

DvLGIC/GluCl 11 = DvLGIC/GluCl 11 expressed in Xenopus oocytes, current response; conditions: concentration not given
Description: as §1, §4

[1] = 1 μM ivermectin phosphate, holding potential 0 or −30 mV
[2] = Xenopus oocytes, concentration not given
[3] = after 1 μM ivermectin phosphate

Chain of DvLGIC/GluCl 11 (as listed by the source): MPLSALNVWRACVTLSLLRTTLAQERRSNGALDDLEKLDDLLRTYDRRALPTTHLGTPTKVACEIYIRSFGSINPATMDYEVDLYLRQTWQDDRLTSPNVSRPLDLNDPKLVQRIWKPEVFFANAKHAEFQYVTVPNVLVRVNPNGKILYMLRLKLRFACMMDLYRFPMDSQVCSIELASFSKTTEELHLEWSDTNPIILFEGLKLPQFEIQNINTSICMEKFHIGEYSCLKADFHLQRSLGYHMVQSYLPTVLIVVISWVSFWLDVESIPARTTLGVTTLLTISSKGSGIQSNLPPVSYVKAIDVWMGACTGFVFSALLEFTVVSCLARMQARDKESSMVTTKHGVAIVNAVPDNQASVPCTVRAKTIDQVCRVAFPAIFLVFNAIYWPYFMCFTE

Compound	current in response to application (DvLGIC/GluCl 1; 1 mM glutamate)	current in response to application (DvLGIC/GluCl 7-1; 1 mM glutamate)	responsiveness of the channel to the substance (DvLGIC/GluCl 10-2)	current in response to application (DvLGIC/GluCl 1; [1])	concentration at which current activation was maximal (DvLGIC/GluCl 1; Xenopus oocytes injected with DvLGIC/GluCl 1 mRNA, FIG. 9) [µM]	current in response to addition (DvLGIC/GluCl 1; [2])	reversibility of current upon wash-out (DvLGIC/GluCl 1; [3])	current in response to application (DvLGIC/GluCl 7-1; [1])	concentration at which current activation was maximal (DvLGIC/GluCl 7-1; DvLGIC/GluCl 7-1 expressed in Xenopus oocytes, FIG. 10) [µM]	current in response to addition (DvLGIC/GluCl 7-1; [2])	reversibility of current upon wash-out (DvLGIC/GluCl 7-1; [3])	current in response to addition (DvLGIC/GluCl 11)
N[C@@H](CCC(=O)O)C(=O)O [glutamate]	did not activate a current	did not activate a current	not responsive	–	–	–	–	–	–	–	–	–
ivermectin phosphate	–	–	not responsive	slowly activating current	1	exhibit a current	irreversible	slowly activating current	~1	exhibit a current	irreversible	exhibit a current
